According to patent US9834550B2, “Pyridopyrimidinone compounds for modulating the catalytic activity of histone lysine demethylases (KDMs)” (Dong-A Socio Holdings Co., Ltd., priority 2014, dated 2017):

molecular target: T1, Recombinant human JARID1B/KDM5B (Homo sapiens, UniProt Q9UGL1); assay: LANCE Ultra TR-FRET demethylase assay with FLAG-tagged JARID1B; assay type: biochemical; settings: 100 nM compound; 500 nM biotinylated H3K4me3 peptide substrate
T1 construct: purchased Active Motif 31432; host or cells: Sf9 insect cells
T1 sequence (Q9UGL1 whole entry): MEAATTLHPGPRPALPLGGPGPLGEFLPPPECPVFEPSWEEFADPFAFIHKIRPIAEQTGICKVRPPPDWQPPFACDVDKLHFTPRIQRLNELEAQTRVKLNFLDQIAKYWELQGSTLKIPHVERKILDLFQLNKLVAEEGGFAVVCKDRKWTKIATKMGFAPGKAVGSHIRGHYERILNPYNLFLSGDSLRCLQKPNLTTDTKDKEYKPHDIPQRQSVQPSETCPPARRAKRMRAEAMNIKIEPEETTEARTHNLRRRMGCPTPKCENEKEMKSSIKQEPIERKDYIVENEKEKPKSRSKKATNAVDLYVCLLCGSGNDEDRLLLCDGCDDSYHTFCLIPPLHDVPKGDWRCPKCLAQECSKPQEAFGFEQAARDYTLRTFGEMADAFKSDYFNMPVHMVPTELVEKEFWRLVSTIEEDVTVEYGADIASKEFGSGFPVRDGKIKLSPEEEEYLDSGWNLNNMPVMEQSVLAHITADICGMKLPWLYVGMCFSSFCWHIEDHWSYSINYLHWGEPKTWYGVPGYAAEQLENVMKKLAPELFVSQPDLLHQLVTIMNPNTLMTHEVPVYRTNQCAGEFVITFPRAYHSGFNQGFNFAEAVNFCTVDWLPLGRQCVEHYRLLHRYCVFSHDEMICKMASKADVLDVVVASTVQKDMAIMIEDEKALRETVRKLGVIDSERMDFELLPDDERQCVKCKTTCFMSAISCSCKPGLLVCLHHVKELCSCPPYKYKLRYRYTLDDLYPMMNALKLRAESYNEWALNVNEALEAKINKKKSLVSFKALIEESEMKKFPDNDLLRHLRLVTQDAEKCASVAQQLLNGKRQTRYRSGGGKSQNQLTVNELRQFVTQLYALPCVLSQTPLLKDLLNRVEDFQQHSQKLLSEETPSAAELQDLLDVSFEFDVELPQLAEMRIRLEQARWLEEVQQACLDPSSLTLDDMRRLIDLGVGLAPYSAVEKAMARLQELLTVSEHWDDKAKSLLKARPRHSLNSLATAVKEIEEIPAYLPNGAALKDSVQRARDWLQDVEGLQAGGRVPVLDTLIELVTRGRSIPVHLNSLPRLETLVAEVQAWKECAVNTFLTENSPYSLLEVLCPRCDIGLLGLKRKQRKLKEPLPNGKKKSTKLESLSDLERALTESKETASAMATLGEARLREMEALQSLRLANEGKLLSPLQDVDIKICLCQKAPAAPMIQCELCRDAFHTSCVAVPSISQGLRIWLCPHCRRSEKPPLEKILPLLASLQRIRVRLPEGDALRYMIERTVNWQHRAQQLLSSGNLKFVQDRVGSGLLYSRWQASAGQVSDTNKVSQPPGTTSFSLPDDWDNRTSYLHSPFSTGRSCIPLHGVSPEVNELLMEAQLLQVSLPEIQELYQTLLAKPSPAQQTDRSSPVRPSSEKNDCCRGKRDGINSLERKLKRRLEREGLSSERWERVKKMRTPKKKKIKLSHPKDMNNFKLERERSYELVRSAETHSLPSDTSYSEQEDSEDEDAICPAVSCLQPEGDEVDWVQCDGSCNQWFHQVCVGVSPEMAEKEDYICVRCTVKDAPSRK
Description: FLAG-tagged JARID1B (also known as KDM5B) protein was screened against more than 170 compounds. For this compound screening, LANCE Ultra time-resolved fluorescence resonance energy transfer (TR-FRET) assay was employed using an europoium (Eu)-labeled antibody that can specifically recognize mono- or dimethylated peptides (H3K4me2/1) and ULight-streptavidin (ULight-SA), a small molecule fluorescent dye. When irradiated at 340 nm, the energy from the Eu donor is transferred to the ULight acceptor dye which, in turn, emits light primarily at 665 nm. The ratio between the intensity of primary emission at 665 nm and that of secondary emission at 590 nm was used to quantify the level of lysine methylation. As JARID1B removes more methyl moieties from tri-methylated substrate peptides (H3K4me3), the ratio increases until the enzyme reaction is terminated. In case, therefore, the compounds disrupt the enzymatic activity completely, the ratio becomes equal to a background value.
Recombinant human JARID1B/KDM5B (accession number NP_006609) of molecular weight 179.9 KDa was expressed in Sf9 insect cells and contains an N-terminal FLAG tag. The enzyme was obtained from Active Motif (Catalog No. 31432). The tri-methylated histone substrate peptide of purity greater than 95% was a synthetic peptide in which the first 21 amino acids correspond to the human histone H3 sequence with three extra amino acids and a biotin motif (GGK-biotin) linked to the C-terminus [sequence: ART-K (Me3)-QTARKSTGGKAPRKQLA-GGK-biotin-OH], (AnaSpec, Fremont, Calif. Catalog. No. ANA-1413). The reference inhibitory compound tranylcypromine (or trans-2-phenylcyclopropylamine hydrochloride, also known as, 2-PCPA) was purchased from Sigma (St. Louis, Mo. Cat. no. P8511). ULight-labeled streptavidin (ULight-SA, Catalog no. TRF0102), Eu-W1024-labeled anti-methyl-Histone H3 Lysine 4 (H3K4me1-2) Antibody (Catalog no. TRF0402), and LANCE detection buffer 10× (Catalog no. CR97-100) were obtained from PerkinElmer (Montreal, Quebec, Canada). The TR-FRET experiments were carried out in white, low-volume 384-wellplates purchased from PerkinElmer (ProxiPlate-384 Plus, Catalog no. 6008280).
The TR-FRET signal was measured in the presence both of the bio-H3K4me3 peptide and FLAG-JARID1B by detecting any H3K4me2/1 peptide produced in the assay system. Assays using only the bio-H3K4me2 peptide were served as a positive control. Robust enzymatic progressions were observed by using JARID1B at concentrations ranging from 10 to 30 nM. In a typical TR-FRET experiment, JARID1B was pre-incubated with or without 20 uM, 1 uM, or 0.1 uM of test-compounds (containing 1% DMSO final) for […]. The enzymatic reactions were initiated by the addition of 500 nM biotinylated H3K4me3 peptide substrate plus 500 uM of 2-OG, 25 uM Fe(II) and 2 mM ascorbate. The reaction buffer also contained 50 mM Hepes (pH7.5), 0.01% (v/v) Tween 20, and 50 mM NaCl. The reaction mixture was incubated for […] at room temperature before reading on an EnVision plate reader (PerkinElmer, Waltham, Mass.).

inhibition at 0.1 µM [%] | SMILES
< 20 | O=c1[nH]c(COc2ccc(F)c(Cl)c2)nc2c(CNCC3CCOC3)nccc12 (stereo not shown) [Example 163, 2-((3-chloro-4-fluorophenoxy)methyl)-8-((((tetrahydrofuran-3-yl)methyl)amino)methyl)pyrido[3,4-d]pyrimidin-4(3H)-one]
20 to 50 | O=c1[nH]c(COc2ccc(Cl)cc2Cl)nc2c(CNCC3CCNCC3)nccc12 [Example 114, 2-((2,4-dichlorophenoxy)methyl)-8-(((piperidin-4-ylmethyl)amino)methyl)pyrido[3,4-d]pyrimidin-4(3H)-one]
20 to 50 | O=c1[nH]c(COc2ccc(Cc3ccccc3)cc2)nc2c(CNC[C@@H]3CCNC3)nccc12 [Example 151, (R)-2-((4-benzylphenoxy)methyl)-8-(((pyrrolidin-3-ylmethyl)amino)methyl)pyrido[3,4-d]pyrimidin-4(3H)-one]
> 50 | O=c1[nH]c(COCc2ccccc2Cl)nc2c(CNCC3CCNCC3)nccc12 [Example 209, 2-(((2-chlorobenzyl)oxy)methyl)-8-(((piperidin-4-ylmethyl)amino)methyl)pyrido[3,4-d]pyrimidin-4(3H)-one]
> 50 | N[C@@H]1CCN(C(=O)CNCc2nccc3c(=O)[nH]c(COc4ccc(F)c(Cl)c4)nc23)C1 [Example 228, (R)-8-(((2-(3-aminopyrrolidin-1-yl)-2-oxoethyl)amino)methyl)-2-((3-chloro-4-fluorophenoxy)methyl)pyrido[3,4-d]pyrimidin-4(3H)-one]
20 to 50 | O=c1[nH]cnc2c(CNCC3CCNCC3)nccc12 [Example 93, 8-(((piperidin-4-ylmethyl)amino)methyl)pyrido[3,4-d]pyrimidin-4(3H)-one]
> 50 | Cc1ccc(Cl)c(OCc2nc3c(CNCC4CCNCC4)nccc3c(=O)[nH]2)c1 [Example 130, 2-((2-chloro-5-methylphenoxy)methyl)-8-(((piperidin-4-ylmethyl)amino)methyl)pyrido[3,4-d]pyrimidin-4(3H)-one]
20 to 50 | Cc1ccc(OCc2nc3c(CNCC4CCNCC4)nccc3c(=O)[nH]2)cc1C [Example 136, 2-((3,4-dimethylphenoxy)methyl)-8-(((piperidin-4-ylmethyl)amino)methyl)pyrido[3,4-d]pyrimidin-4(3H)-one]
20 to 50 | O=c1[nH]c(COc2ccccc2F)nc2c(CNCC3CCNCC3)nccc12 [Example 116, 2-((2-fluorophenoxy)methyl)-8-(((piperidin-4-ylmethyl)amino)methyl)pyrido[3,4-d]pyrimidin-4(3H)-one]
20 to 50 | Cc1ccc(OCc2nc3c(CNCC4CCNCC4)nccc3c(=O)[nH]2)cc1 [Example 120, 8-(((piperidin-4-ylmethyl)amino)methyl)-2-((p-tolyloxy)methyl)pyrido[3,4-d]pyrimidin-4(3H)-one]
20 to 50 | C[C@H](Oc1ccc(F)c(Cl)c1)c1nc2c(CNCC3CCNCC3)nccc2c(=O)[nH]1 [Example 219, (S)-2-(1-(3-chloro-4-fluorophenoxy)ethyl)-8-(((piperidin-4-ylmethyl)amino)methyl)pyrido[3,4-d]pyrimidin-4(3H)-one]
> 50 | O=c1[nH]c(COc2ccc(Cc3ccccc3)cc2)nc2c(CNC[C@H]3CCCNC3)nccc12 [Example 153, (S)-2-((4-benzylphenoxy)methyl)-8-(((piperidin-3-ylmethyl)amino)methyl)pyrido[3,4-d]pyrimidin-4(3H)-one]
> 50 | CN1CCC(CNCc2nccc3c(=O)[nH]c(COc4ccc(F)c(Cl)c4)nc23)C1 (stereo not shown) [Example 159, 2-((3-chloro-4-fluorophenoxy)methyl)-8-((((1-methylpyrrolidin-3-yl)methyl)amino)methyl)pyrido[3,4-d]pyrimidin-4(3H)-one]
20 to 50 | O=c1[nH]c(COc2ccccc2)nc2c(CNCC3CCNCC3)nccc12 [Example 123, 2-(phenoxymethyl)-8-(((piperidin-4-ylmethyl)amino)methyl)pyrido[3,4-d]pyrimidin-4(3H)-one]
> 50 | CN1CCC(CNCc2nccc3c(=O)[nH]c(COCc4cccc(Cl)c4)nc23)CC1 [Example 207, 2-(((3-chlorobenzyl)oxy)methyl)-8-((((1-methylpiperidin-4-yl)methyl)amino)methyl)pyrido[3,4-d]pyrimidin-4(3H)-one]

Further lines, the compound ahead of its results:

SMILES | inhibition at 0.1 µM [%]
O=c1[nH]c(COc2ccc(Cc3ccccc3)cc2)nc2c(CNCCN3CCOCC3)nccc12 [Example 157, 2-((4-benzylphenoxy)methyl)-8-(((2-morpholinoethyl)amino)methyl)pyrido[3,4-d]pyrimidin-4(3H)-one] | 20 to 50
CN1CCC(CNCc2nccc3c(=O)[nH]c(COCc4ccccc4)nc23)CC1 [Example 203, 2-((benzyloxy)methyl)-8-((((1-methylpiperidin-4-yl)methyl)amino)methyl)pyrido[3,4-d]pyrimidin-4(3H)-one] | > 50
O=c1[nH]c(COc2ccc(F)c(Cl)c2)nc2c(CNCc3ccccn3)nccc12 [Example 170, 2-((3-chloro-4-fluorophenoxy)methyl)-8-(((pyridin-2-ylmethyl)amino)methyl)pyrido[3,4-d]pyrimidin-4(3H)-one] | 20 to 50
O=c1[nH]c(COc2ccc(F)c(Cl)c2)nc2c(CNCCc3cccs3)nccc12 [Example 176, 2-((3-chloro-4-fluorophenoxy)methyl)-8-(((2-(thiophen-2-yl)ethyl)amino)methyl)pyrido[3,4-d]pyrimidin-4(3H)-one] | 20 to 50
O=C(CNCc1nccc2c(=O)[nH]c(COc3ccc(F)c(Cl)c3)nc12)N1CCC(N2CCCC2)CC1 [Example 234, 2-((3-chloro-4-fluorophenoxy)methyl)-8-(((2-oxo-2-(4-(pyrrolidin-1-yl)piperidin-1-yl)ethyl)amino)methyl)pyrido[3,4-d]pyrimidin-4(3H)-one] | > 50
CN1CCC(CNCc2nccc3c(=O)[nH]cnc23)CC1 [Example 95, 8-((((1-methylpiperidin-4-yl)methyl)amino)methyl)pyrido[3,4-d]pyrimidin-4(3H)-one] | 20 to 50
O=c1[nH]c(COc2ccc(F)c(Cl)c2)nc2c(CNCCc3ccccn3)nccc12 [Example 186, 2-((3-chloro-4-fluorophenoxy)methyl)-8-(((2-(pyridin-2-yl)ethyl)amino)methyl)pyrido[3,4-d]pyrimidin-4(3H)-one] | 20 to 50
CCN(CC)CCCCNCc1nccc2c(=O)[nH]cnc12 [Example 86, 8-(((4-(diethylamino)butyl)amino)methyl)pyrido[3,4-d]pyrimidin-4(3H)-one] | < 20
Cc1cnc(CNCc2nccc3c(=O)[nH]c(COc4ccc(F)c(Cl)c4)nc23)cn1 [Example 166, 2-((3-chloro-4-fluorophenoxy)methyl)-8-((((5-methylpyrazin-2-yl)methyl)amino)methyl)pyrido[3,4-d]pyrimidin-4(3H)-one] | 20 to 50
O=c1[nH]c(COc2ccc(F)c(Cl)c2)nc2c(CNCCN3CCOCC3)nccc12 [Example 164, 2-((3-chloro-4-fluorophenoxy)methyl)-8-(((2-morpholinoethyl)amino)methyl)pyrido[3,4-d]pyrimidin-4(3H)-one] | 20 to 50
O=c1[nH]c(COc2ccncc2)nc2c(CNCC3CCN(Cc4ccccc4)CC3)nccc12 [Example 110, 8-((((1-benzylpiperidin-4-yl)methyl)amino)methyl)-2-((pyridin-4-yloxy)methyl)pyrido[3,4-d]pyrimidin-4(3H)-one] | > 50
Cc1cccc(CCNCc2nccc3c(=O)[nH]c(COc4ccc(F)c(Cl)c4)nc23)n1 [Example 184, 2-((3-chloro-4-fluorophenoxy)methyl)-8-(((2-(6-methylpyridin-2-yl)ethyl)amino)methyl)pyrido[3,4-d]pyrimidin-4(3H)-one] | < 20
O=c1[nH]cnc2c(CNC[C@@H]3CCCNC3)nccc12 [Example 98, (R)-8-(((piperidin-3-ylmethyl)amino)methyl)pyrido[3,4-d]pyrimidin-4(3H)-one] | < 20
